Test results reported in the NIST ThermoML archive (doi:10.1016/j.jct.2015.07.034).
± gives the expanded uncertainty stated by the source.

Conditions: for Normal melting temperature: DTA

Structure (SMILES) | Normal melting temperature (Crystal) | Glass transition temperature (Glass, DSC) | Normal melting temperature (Crystal 1) | Triple point temperature (Crystal 2, DSC) | Triple point temperature (Metastable crystal, DSC)
CCn1cc[n+](C)c1.O=S(=O)([N-]S(=O)(=O)C(F)(F)C(F)(F)F)C(F)(F)C(F)(F)F | 16.00 ± 2 °C | -52.00 ± 2 °C |  |  | 
CCn1cc[n+](C)c1.O=S(=O)([O-])C(F)(F)F [1-ethyl-3-methylimidazolium trifluoromethanesulfonate] | -14.00 ± 2 °C |  |  |  | 
CC[n+]1ccccc1.O=S(=O)([N-]S(=O)(=O)C(F)(F)F)C(F)(F)F [1-ethylpyridinium bis[(trifluoromethyl)sulfonyl]imide] |  |  | 32.00 ± 2 °C | 294.15 ± 2 K | 
CC[n+]1ccccc1.CS(=O)(=O)[O-] [1-ethylpyridinium methanesulfonate] | 62.00 ± 2 °C |  |  |  | 
CC[n+]1ccccc1.O=S(=O)([O-])C(F)(F)F [1-ethylpyridinium triflate] |  |  | 32.00 ± 2 °C | 266.15 ± 2 K | 
C[N+](C)(C)CCO.O=S(=O)([N-]S(=O)(=O)C(F)(F)F)C(F)(F)F [choline bis(trifluoromethylsulfonyl)imide] |  |  | 33.00 ± 2 °C | 275.15 ± 2 K | 300.15 ± 2 K
